# Results: patent publication US20080249142A1, “HYDRO[…] OF ME[…]” (Targacept, Inc., priority 2004, published 2008)
# Experiment: physical and chemical properties of the hydroxybenzoate salts (stated, no method described)
# Type: physicochemical
# Settings: solid salt, free-flowing crystalline powder
substance,measurement,value
(2S)-(4E)-N-methyl-5-(5-isopropoxy-3-pyridinyl)-4-penten-2-amine p-hydroxybenzoate [Example 1],physical and chemical stability of the salt,physically and chemically stable
